For 19 compounds, IC50 results are on record in patent publication US20240300937A1, “Substituted 6-(Pyrimidin-4-yl)Quinoline Compounds as Cyclin Dependent Kinase Inhibitors” (BeiGene, Ltd., priority 2022, published 2024).

For one test, the target named is CDK4/Cyclin D1 (Homo sapiens (Human), UniProt P11802). Nature of the test: CDK4/Cyclin D1 kinase TR-FRET inhibition assay. The test is classed as biochemical. The conditions noted are these: 1 mM ATP, Rb (Ser780)-biotin substrate, read-out: CDK4D1 IC50. Here is the method: (§1) Compounds disclosed herein were tested for inhibition of CDK4/Cyclin D1 or CDK6/Cyclin D3 kinase in an assay based on the time-resolved fluorescence-resonance energy transfer (TR-FRET) methodology. The assay was carried out in 384-well low volume black plates in a reaction mixture containing CDK4/Cyclin D1 or CDK6/Cyclin D3, 1 mM ATP, 0.15 μM Rb (Ser780)-biotin substrate and 0-10 μM compound in buffer containing 50 mM HEPES pH7.0, 0.02% NaN3, 0.01% BSA, 0.1 mM Orthovanadate, 50 mM MgCl2, 1 mM DTT and 0.005% Tween-20. The kinase was incubated with compound for 60 minutes at room temperature and the reaction was initiated by the addition of ATP and Rb (Ser780)-biotin substrate. After reaction at room temperature for 120 minutes, an equal volume of stop/detection solution was added according to the manufacture's instruction (Cisbio Bioassays). The stop/detection solution contained Streptavidin-XL665 and Anti-pRb (Ser780) mAb-Eu Cryptate in Detection buffer (Cisbio Bioassays). Plates were incubated at room temperature for 60 minutes, and the TR-FRET signals (ex337 nm, em665 nm/620 nm) were recorded on a PHERAstar FSX plate reader (BMG Labtech). The inhibition percentage of CDK4/Cyclin D1 or CDK6/Cyclin D3 kinase activity in presence of increasing concentrations of compounds was calculated based on the ratio of fluorescence at 665 nm to that at 620 nm. The IC50 for each compound was derived from fitting the data to the four-parameter logistic equation by Dotmatics.
(In general: Time-resolved FRET reads energy transfer from a long-lived donor to a nearby acceptor.)

The next test has as its target CDK6/Cyclin D3 (Homo sapiens (Human), UniProt Q00534). Nature of the test: CDK6/Cyclin D3 kinase TR-FRET inhibition assay. The test is classed as biochemical. To be noted: 1 mM ATP, Rb (Ser780)-biotin substrate, read-out: CDK6D3 IC50. The protocol:
as §1

Sequence of CDK6/Cyclin D3 (Q00534 whole entry): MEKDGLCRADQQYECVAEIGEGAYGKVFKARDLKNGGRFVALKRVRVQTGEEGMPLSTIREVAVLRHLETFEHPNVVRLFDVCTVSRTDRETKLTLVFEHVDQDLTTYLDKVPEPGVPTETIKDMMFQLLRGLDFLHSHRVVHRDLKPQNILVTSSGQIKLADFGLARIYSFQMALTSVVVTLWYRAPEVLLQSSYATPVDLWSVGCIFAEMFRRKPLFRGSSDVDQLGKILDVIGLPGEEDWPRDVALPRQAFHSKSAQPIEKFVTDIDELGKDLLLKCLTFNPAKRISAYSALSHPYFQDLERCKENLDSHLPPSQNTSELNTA
Sequence of CDK6/Cyclin D3 (P30281 whole entry partner): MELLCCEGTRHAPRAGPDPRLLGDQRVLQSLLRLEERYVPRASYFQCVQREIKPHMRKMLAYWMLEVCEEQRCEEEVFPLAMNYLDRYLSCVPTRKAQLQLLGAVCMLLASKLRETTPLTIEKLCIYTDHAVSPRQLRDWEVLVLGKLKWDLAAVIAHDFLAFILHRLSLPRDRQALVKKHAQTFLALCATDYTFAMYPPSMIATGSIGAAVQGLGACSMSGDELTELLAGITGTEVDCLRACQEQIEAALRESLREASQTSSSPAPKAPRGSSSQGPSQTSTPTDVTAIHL
Sequence of CDK4/Cyclin D1 (P11802 whole entry): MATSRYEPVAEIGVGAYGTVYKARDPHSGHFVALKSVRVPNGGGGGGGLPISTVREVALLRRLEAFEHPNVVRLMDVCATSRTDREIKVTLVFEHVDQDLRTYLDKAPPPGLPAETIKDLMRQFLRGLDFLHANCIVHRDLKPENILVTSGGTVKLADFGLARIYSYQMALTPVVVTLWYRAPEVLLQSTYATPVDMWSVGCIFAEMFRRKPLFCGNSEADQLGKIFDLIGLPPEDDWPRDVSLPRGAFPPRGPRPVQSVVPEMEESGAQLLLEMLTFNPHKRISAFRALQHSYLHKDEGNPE
Sequence of CDK4/Cyclin D1 (P24385 whole entry partner): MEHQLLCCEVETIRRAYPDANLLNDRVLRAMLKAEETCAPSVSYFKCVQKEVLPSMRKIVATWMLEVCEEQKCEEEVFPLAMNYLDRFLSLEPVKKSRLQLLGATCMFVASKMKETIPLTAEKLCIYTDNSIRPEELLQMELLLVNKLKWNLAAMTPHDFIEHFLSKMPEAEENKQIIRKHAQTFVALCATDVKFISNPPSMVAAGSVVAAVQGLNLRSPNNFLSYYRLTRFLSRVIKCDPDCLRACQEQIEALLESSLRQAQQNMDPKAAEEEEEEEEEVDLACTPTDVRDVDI

The term IC50 denotes the midpoint of a concentration-inhibition curve. On to `CC(C)c1c([C@H](C)O)cnc2ccc(-c3nc(N[C@@H]4CCOC[C@H]4O)ncc3F)cc12` [Example 41, (3S,4R)-4-((5-fluoro-4-(3-((S)-1-hydroxyethyl)-4-isopropylquinolin-6-yl)pyrimidin-2-yl)amino)tetrahydro-2H-pyran-3-ol], for which the IC50 at CDK4/Cyclin D1 was 10 nM; on CDK6/Cyclin D3, 170 nM.

Take `CC(C)c1c(CO)cnc2ccc(-c3nc(N[C@@H]4CCOC[C@H]4O)ncc3F)cc12` [Example 3, (3S,4R)-4-((5-fluoro-4-(3-(hydroxymethyl)-4-isopropylquinolin-6-yl)pyrimidin-2-yl)amino)tetrahydro-2H-pyran-3-ol]: the 50% inhibitory concentration (IC50) at CDK4/Cyclin D1 turned out to be 4.9 nM; on CDK6/Cyclin D3, 73.5 nM.

`CC(C)c1nc(C(C)(C)O)nc2c(F)cc(-c3nc(N[C@@H]4CCOC[C@H]4O)ncc3Cl)cc12` [Example 209, (3S,4R)-4-((5-chloro-4-(8-fluoro-2-(2-hydroxypropan-2-yl)-4-isopropylquinazolin-6-yl)pyrimidin-2-yl)amino)tetrahydro-2H-pyran-3-ol]: the values for the IC50 at CDK4/Cyclin D1 and on CDK6/Cyclin D3 were 1770 nM and 4990 nM, respectively.

On to `CC(C)c1c(C(C)(C)O)cnc2c(F)cc(-c3nc(N[C@@H]4CCOC[C@H]4O)ncc3Cl)cc12` [Example 117, (3S,4R)-4-((5-chloro-4-(8-fluoro-3-(2-hydroxypropan-2-yl)-4-isopropylquinolin-6-yl)pyrimidin-2-yl)amino)tetrahydro-2H-pyran-3-ol], for which the IC50 is 2.1 nM at CDK4/Cyclin D1 and 54 nM at CDK6/Cyclin D3.

`CC(C)c1c(CNC2CCOC2)cnc2ccc(-c3nc(N[C@@H]4CCOC[C@H]4O)ncc3F)cc12` (stereo partly drawn) [Example 21, (3S,4R)-4-((5-fluoro-4-(4-isopropyl-3-(((tetrahydrofuran-3-yl)amino)methyl)quinolin-6-yl)pyrimidin-2-yl)amino)tetrahydro-2H-pyran-3-ol]: the concentration for half-maximal inhibition (IC50) at CDK4/Cyclin D1 was determined as 15 nM; on CDK6/Cyclin D3, 495 nM.

Take `CC(C)c1cc(C(C)(C)O)nc2c(F)cc(-c3nc(N[C@@H]4CCOC[C@H]4O)ncc3Cl)cc12` [Example 208, (3S,4R)-4-((5-chloro-4-(8-fluoro-2-(2-hydroxypropan-2-yl)-4-isopropylquinolin-6-yl)pyrimidin-2-yl)amino)tetrahydro-2H-pyran-3-ol]: the IC50 at CDK4/Cyclin D1 turned out to be 146 nM; on CDK6/Cyclin D3, 497 nM.

As to `CC(C)c1c(CN2CCC[C@H](C#N)C2)cnc2ccc(-c3nc(N[C@@H]4CCOC[C@H]4O)ncc3F)cc12` [Example 61, (S)-1-((6-(5-fluoro-2-(((3S,4R)-3-hydroxytetrahydro-2H-pyran-4-yl)amino)pyrimidin-4-yl)-4-isopropylquinolin-3-yl)methyl)piperidine-3-carbonitrile], the values for the IC50 on CDK4/Cyclin D1 and at CDK6/Cyclin D3 were 8.7 nM and 426 nM, respectively.

Take `CC(C)c1c(CN[C@H]2CCCOC2)cnc2ccc(-c3nc(N[C@@H]4CCOC[C@H]4O)ncc3F)cc12` [Example 37, (3S,4R)-4-((5-fluoro-4-(4-isopropyl-3-((((S)-tetrahydro-2H-pyran-3-yl)amino)methyl)quinolin-6-yl)pyrimidin-2-yl)amino)tetrahydro-2H-pyran-3-ol]: the IC50 at CDK4/Cyclin D1 came to 27 nM; at CDK6/Cyclin D3 it was 945 nM.

As for `CC(C)c1cc(C(C)(C)O)nc2ccc(-c3nc(N[C@@H]4CCOC[C@H]4O)ncc3F)cc12` [Example 206, (3S,4R)-4-((5-fluoro-4-(2-(2-hydroxypropan-2-yl)-4-isopropylquinolin-6-yl)pyrimidin-2-yl)amino)tetrahydro-2H-pyran-3-ol], the figures for the IC50 at CDK4/Cyclin D1 and at CDK6/Cyclin D3 were 185 nM and 1500 nM, respectively.

With `Cc1c(-c2nc(N[C@@H]3CCOC[C@H]3O)ncc2F)ccc2ncc(CO)c(C(C)C)c12` [Example 120, (3S,4R)-4-((5-fluoro-4-(3-(hydroxymethyl)-4-isopropyl-5-methylquinolin-6-yl)pyrimidin-2-yl)amino)tetrahydro-2H-pyran-3-ol], the IC50 at CDK4/Cyclin D1 came to 23.5 nM; at CDK6/Cyclin D3, 149 nM.

`CC(C)c1c(CO)cnc2c(F)cc(-c3nc(N[C@@H]4CCOC[C@H]4O)ncc3F)cc12` [Example 51, (3S,4R)-4-((5-fluoro-4-(8-fluoro-3-(hydroxymethyl)-4-isopropylquinolin-6-yl)pyrimidin-2-yl)amino)tetrahydro-2H-pyran-3-ol]: the IC50 on CDK4/Cyclin D1 amounted to 4.2 nM; at CDK6/Cyclin D3 it was 67.2 nM.

Turning to `Cc1cc(C(C)C)c2cc(-c3nc(N[C@@H]4CCOC[C@H]4O)ncc3F)ccc2n1` [Example 10, (3S,4R)-4-((5-fluoro-4-(4-isopropyl-2-methylquinolin-6-yl)pyrimidin-2-yl)amino)tetrahydro-2H-pyran-3-ol], the 50% inhibitory concentration (IC50) on CDK4/Cyclin D1 came out at 77 nM; on CDK6/Cyclin D3, 924 nM.

Consider `CC(C)c1c(CN[C@@H]2CCOC2)cnc2ccc(-c3nc(N[C@@H]4CCOC[C@H]4O)ncc3F)cc12` [Example 35, (3S,4R)-4-((5-fluoro-4-(4-isopropyl-3-((((R)-tetrahydrofuran-3-yl)amino)methyl)quinolin-6-yl)pyrimidin-2-yl)amino)tetrahydro-2H-pyran-3-ol], for which the IC50 on CDK4/Cyclin D1 was 16 nM; on CDK6/Cyclin D3 it was 592 nM.

On to `CC(C)c1c(CN2CCC[C@H](O)C2)cnc2ccc(-c3nc(N[C@@H]4CCOC[C@H]4O)ncc3F)cc12` [Example 57, (S)-1-((6-(5-fluoro-2-(((3S,4R)-3-hydroxytetrahydro-2H-pyran-4-yl)amino)pyrimidin-4-yl)-4-isopropylquinolin-3-yl)methyl)piperidin-3-ol], for which the values for the IC50 on CDK4/Cyclin D1 and on CDK6/Cyclin D3 were 18 nM and 486 nM, respectively.

Regarding `CC(C)c1c(CN[C@H]2CCOC2)cnc2ccc(-c3nc(N[C@@H]4CCOC[C@H]4O)ncc3F)cc12` [Example 32, (3S,4R)-4-((5-fluoro-4-(4-isopropyl-3-((((S)-tetrahydrofuran-3-yl)amino)methyl)quinolin-6-yl)pyrimidin-2-yl)amino)tetrahydro-2H-pyran-3-ol], the IC50 turned out to be 11 nM at CDK4/Cyclin D1 and 484 nM at CDK6/Cyclin D3.

As for `CC(C)c1c(CN[C@@H]2CCOC2)cnc2ccc(-c3nc(N[C@@H]4CCOC[C@H]4O)ncc3F)cc12` [Example 40, (3S,4R)-4-((5-fluoro-4-(4-isopropyl-3-((((R)-tetrahydrofuran-3-yl)amino)methyl)quinolin-6-yl)pyrimidin-2-yl)amino)tetrahydro-2H-pyran-3-ol], the IC50 was determined as 33 nM at CDK4/Cyclin D1 and 759 nM at CDK6/Cyclin D3.

For `CC(C)c1c(CNC2CCCCC2)cnc2ccc(-c3nc(N[C@@H]4CCOC[C@H]4O)ncc3F)cc12` [Example 28], the concentration for half-maximal inhibition (IC50) on CDK4/Cyclin D1 worked out at 19 nM; on CDK6/Cyclin D3, 703 nM.

For `CC(C)c1c(CN2C[C@H]3C[C@@H]2CO3)cnc2ccc(-c3nc(N[C@@H]4CCOC[C@H]4O)ncc3F)cc12` [Example 49, (3S,4R)-4-((4-(3-(((1R,4R)-2-oxa-5-azabicyclo[2.2.1]heptan-5-yl)methyl)-4-isopropylquinolin-6-yl)-5-fluoropyrimidin-2-yl)amino)tetrahydro-2H-pyran-3-ol], the 50% inhibitory concentration (IC50) on CDK4/Cyclin D1 amounted to 14 nM; at CDK6/Cyclin D3 it was 392 nM.

As to `CC(C)c1c(CNC[C@H]2CCOC2)cnc2ccc(-c3nc(N[C@@H]4CCOC[C@H]4O)ncc3F)cc12` [Example 27, (3S,4R)-4-((5-fluoro-4-(4-isopropyl-3-(((((R)-tetrahydrofuran-3-yl)methyl)amino)methyl)quinolin-6-yl)pyrimidin-2-yl)amino)tetrahydro-2H-pyran-3-ol], the results for the half-maximal inhibitory concentration (IC50) on CDK4/Cyclin D1 and on CDK6/Cyclin D3 were 23 nM and 828 nM, respectively.
